One series concerns COPD patients. Kind of series: Clinical pharmacology studies of Compound (I) in COPD patients (FEV1). The format is in vivo, human. The conditions noted are these: 100 mcg and 400 mcg, with lactose alone. An excerpt: (§1) Compound (I) as the α-phenylcinnamate salt and the triphenylacetate salt has been studied in a number of clinical pharmacology studies, including single- and repeat-dose studies. In addition, these studies have evaluated Compound (I) with the excipients cellobiose octaacetate and magnesium stearate.
In COPD patients, treatment with 100 mcg and 400 mcg Compound (I) alpha-phenylcinnamate (with lactose alone) achieved a clinically relevant adjusted mean difference from placebo in weighted mean trough FEV1 (22 to 24 hrs) of >100 mL.

The test system of the next series is beta-2 adrenoreceptor. The series can be described thus: Animal and human studies of Compound (I): bronchodilation and safety. The format is in vivo.
In series [1] the test system is asthmatic patients. The series can be described thus: Clinical pharmacology studies of Compound (I) in asthmatic patients (FEV1). Format: in vivo, human. To be noted: all doses of Compound (I).
Description: as §1
In one study in asthmatic patients 100 mcg of Compound (I) triphenylacetate formulated with lactose and magnesium stearate has shown a favourable onset of action.

Series [2] relates to asthmatic patients. Kind of series: Clinical pharmacology studies of Compound (II) in asthmatic patients (FEV1). To be noted: doses of from 100 to 400 mcg. The format is in vivo, human. An excerpt:
Compound (II) has been studied in a number of clinical pharmacology studies, including single- and repeat-dose studies and at a range of doses. In addition, these studies have evaluated Compound (II) with the excipients cellobiose octaacetate and magnesium stearate.

Series [3] is described as follows: Studies of Compound (II) in animal models and humans. The format is in vivo.

Three compounds from patent publication US11116721B2, “Pharmaceutical formulations comprising 4-{(1R)-2-[(6-{2-[(2,6-dichlorobenzyl)oxy]ethoxy}hexyl)amino]-1-hydroxyethyl}-2-(hydroxymethyl) phenol” (Glaxo Group Limited, priority 2009, dated 2021) can be followed below.

Bounds are passed on as bounds.

For `O=C(O)C(=Cc1ccccc1)c1ccccc1.OCc1cc([C@@H](O)CNCCCCCCOCCOCc2c(Cl)cccc2Cl)ccc1O` [Compound (I) alpha-phenylcinnamate, 4-{(1R)-2-[(6-{2-[(2,6-dichlorobenzyl)oxy]ethoxy}hexyl)amino]-1-hydroxyethyl}-2-(hydroxymethyl)phenol α-phenylcinnamate], the “adjusted mean difference from placebo in weighted mean trough FEV1 (22 to 24 hrs)” value in the series with COPD patients is listed as above 100 mL.

Regarding `OCc1cc([C@@H](O)CNCCCCCCOCCOCc2c(Cl)cccc2Cl)ccc1O` [Compound (I), 4-{(1R)-2-[(6-{2-[(2,6-dichlorobenzyl)oxy]ethoxy}hexyl)amino]-1-hydroxyethyl}-2-(hydroxymethyl)phenol], in the series with beta-2 adrenoreceptor, the bronchodilation result is given as “sustained bronchodilation over a 24 hour period” and the safety profile entry is reported as “favourable safety profile”. The “improvement in trough (24-hour) FEV1 compared to placebo” value in the series on asthmatic patients [1] is “statistically and clinically significant improvement”.

For the compound `C[C@@H]1CC2C3C[C@H](F)C4=CC(=O)C=C[C@]4(C)[C@@]3(F)[C@@H](O)C[C@]2(C)[C@@]1(OC(=O)c1ccco1)C(=O)SCF` (stereo partly drawn) [Compound (II), 6α, 9α-difluoro-17α-[(2-furanylcarbonyl)oxy]-11β-hydroxy-16α-methyl-3-oxo-androsta-1,4-diene-17β-carbothioic acid S-fluoromethyl ester], the “improvement in trough (24-hour) FEV1 compared to placebo” value with asthmatic patients [2] was “statistically and clinically significant improvement”. For the same compound, in series [3], the “duration of action (inhaled glucocorticosteroid)” value is reported as “long acting”.
